Laboratory results taken from ChEMBL document CHEMBL1127957, “Synthesis and glutamate antagonist activity of 4-phosphonoalkylquinoline derivatives: A novel class of non-NMDA antagonist” (Bioorg Med Chem Lett, 1994).

Experiments:
Rattus norvegicus [1] = species: Rattus norvegicus; assay: Compound was tested for its ability to inhibit kainic acid (KA)-induced inward currents in Xenopus oocytes injected with poly {A+) mRNA from rats; type: functional
[2] = target: Glutamate receptor ionotropic, NMDA 1 (Rattus norvegicus, UniProt P35439); assay: Binding affinity at glycine co-agonist site of rat NMDA receptor
[3] = Displacement of [3H]CNQX from Ionotropic glutamate receptor kainate/Ionotropic glutamate receptor AMPA in rat cortical membranes; type: cell membranes, Membrane
[4] = Tested for its ability to displace [3H]glutamate from NMDA receptor
Rattus norvegicus [5] = species: Rattus norvegicus; assay: Compound was tested for the ability to inhibit kainic acid (KA)-induced inward currents in Xenopus oocytes injected with poly {A+) mRNA from rats; type: functional

Ki (Rattus norvegicus [1]) [µM]	IC50 [2] [µM]	IC50 [3] [µM]	IC50 [4] [µM]	Ki (Rattus norvegicus [5]) [µM]	SMILES
3.5	81	7.3	> 300	–	NC(Cc1cc(I)ccc1CCP(=O)(O)O)C(=O)O (stereo unspecified)
–	> 1000	> 1000	> 1000	> 300	O=[N+]([O-])c1c(Cl)ccc2nc(O)cc(CP(=O)(O)O)c12
–	10	59	30	32	O=P(O)(O)Cc1cc(O)nc2cc(Cl)ccc12
–	> 1000	–	> 300	> 1000	O=P(O)(O)c1cc(O)nc2cc(Cl)ccc12
–	–	91	600	–	O=P(O)(O)CCc1cc(O)nc2cc(Cl)ccc12
–	29	26	> 100	18.2	O=P(O)(O)Cc1cc(O)nc2cc(Cl)cc(Cl)c12
–	> 1000	384	> 1000	450	O=C(O)c1cc(CCP(=O)(O)O)c2ccc(Cl)cc2n1
–	> 1000	300	> 1000	–	O=[N+]([O-])c1c(Cl)ccc2c(CP(=O)(O)O)cc(O)nc12
–	69	61	–	132	O=C(O)c1cc(CP(=O)(O)O)c2ccc(Cl)cc2n1
–	79	15	> 100	9.6	O=P(O)(O)Cc1cc(O)nc2cc(Cl)c(Cl)cc12
–	37	35	35	15.6	O=P(O)(O)Cc1cc(O)nc2cc(I)ccc12
–	7.9	0.13	–	–	N#Cc1cc2c(cc1[N+](=O)[O-])=NC(=O)C(=O)N=2
